According to PMC6440977 (Nature Communications, 2019):

Molecular target: T. brucei PKAR-PKAC1 holoenzyme (Trypanosoma brucei, UniProt Q9GU80)
Assay: biochemical
Format: biochemical

Q: Which EC50 does the source give for `N#Cc1cn([C@@H]2O[C@H](CO)[C@@H](O)[C@H]2O)c2ncnc(O)c12` [7-CN-7-C-Ino, 7-Cyano-7-deazainosine] here?
A: Its EC50 is 6.5 ± 4.6 nM.
